# Patent US10759785B2, “Compounds” (ENTERPRISE THERAPEUTICS LIMITED, priority 2016, dated 2020)
# Where a name gives a salt, the structure may show the parent alone.
# Test: Microsomal stability (rat microsomes)
# Assay type: in vitro ADME
# Conditions: pH 7.4, 1 μM test compound, 0.5 mg/mL protein, 1 mM NADPH, 37° C., read-out: Averages. Mic Half Life Rat
# Protocol: Example 28—Microsomal Stability
# Microsomes (rat and human) were obtained from Bioreclamation. Test compound stock solutions in DMSO (10 mM) were diluted with DMSO to 2 mM. Further dilution was completed to achieve a 100 μM stock (final concentrations; 91.5% Acetonitrile: 8.5% DMSO). Final test compound concentration in incubation was 1 μM (<0.1% DMSO). The following probe substrates were used: verapamil, propranolol, metoprolol and phenacetin (rat) at a final incubation concentration of 1 μM. Assay buffer—Solution 1: 17.4 g potassium phosphate dibasic anhydrous (K2HPO4, 0.1 M) dissolved in 1 L deionised water. Solution 2: 13.6 g potassium phosphate monobasic anhydrous (KH2PO4, 0.1 M) dissolved in 1 L deionised water. Potassium phosphate solutions 1 and 2 were combined to form a pH 7.42 solution at 37° C. pH 7.4 with 2 mM magnesium chloride. NADPH (10 mM)—diluted in deionised water. Frozen microsomes were thawed at 37° C. Microsomes were diluted in assay buffer to achieve a final protein concentration of 0.5 mg/mL and 1 mM NADPH. The following procedure was completed on a Perkin Elmer Janus robotic platform in 96 well format: The microsomal incubation plate was transferred to a heater shaker at 300 rpm and solution heated to 37° C. for 10 min pre-warm. A no co-factor control at 0 and 45 min and one replicates of each test compound was included in every assay. Microsomes were incubated at 37° C., on a shaker set at 300 rpm throughout the assay. At each timepoint (0, 5, 15, 30, 45 min) 50 μL of sample was removed from the 96-well and added to 200 μL of quench solution (acetonitrile containing 0.1% formic acid and imipramine/labetalol, 200 nM). Samples were diluted 1:1 with water using the Janus Robot and analysed by LC-MS/MS.
row,half-life at 1 μM [min],Compound
1,61,"CCn1c(CNC(=O)c2nc(Br)cnc2N)[n+](CC)c2ccc(C(=O)N[C@H]3CCOC3=O)cc21 [Example 18, 2-{[(3-amino-6-bromopyrazin-2-yl)formamido]methyl}-1,3-diethyl-6-{[(3S)-2-oxooxolan-3-yl]carbamoyl}-1H-1,3-benzodiazol-3-ium formate]"
2,> 138,"CCn1c(CNC(=O)c2nc(Br)cnc2N)[n+](CC)c2ccc(OCCN)cc21.Cl.[Cl-] [Example 25, 2-{[(3-Amino-6-bromopyrazin-2-yl)formamido]methyl}-6-(2-aminoethoxy)-1,3-diethyl-1H-1,3-benzodiazol-3-ium hydrochloride chloride]"
3,3,"CCn1c(CNC(=O)c2nc(SC)cnc2N)[n+](C)c2ccc(OC)cc21.[I-] [Example 9, 2-({[3-amino-6-(methylsulfanyl)pyrazin-2-yl]formamido}methyl)-1-ethyl-6-methoxy-3-methyl-1H-1,3-benzodiazol-3-ium iodide]"
4,29,"CCn1c(CNC(=O)c2nc(Br)cnc2N)[n+](CC)c2ccc(C(=O)N[C@@H]3CCOC3=O)cc21 [Example 17, 2-{[(3-amino-6-bromopyrazin-2-yl)formamido]methyl}-1,3-diethyl-6-{[(3R)-2-oxooxolan-3-yl]carbamoyl}-1H-1,3-benzodiazol-3-ium formate]"
5,77,"CCn1c(CNC(=O)c2nc(Br)cnc2N)[n+](CC)c2ccc(-c3cnn(C4CCNCC4)c3)cc21.Cl.[I-] [Example 21, 2-{[(3-amino-6-bromopyrazin-2-yl)formamido]methyl}-1,3-diethyl-6-[1-(piperidin-4-yl)-1H-pyrazol-4-yl]-1H-1,3-benzodiazol-3-ium hydrochloride iodide]"
6,5,"CCn1c(CNC(=O)c2nc(Br)cnc2N)[n+](C)c2ccc(C(F)(F)F)cc21.[I-] [Example 13, 2-{[(3-amino-6-bromopyrazin-2-yl)formamido]methyl}-1-ethyl-3-methyl-6-(trifluoromethyl)-1H-1,3-benzodiazol-3-ium iodide]"
7,> 138,"CCn1c(CNC(=O)c2nc(Br)cnc2N)[n+](CC)c2ccc(-c3cnn(C4CCN(C(=N)N)CC4)c3)cc21.O=CO.O=C[O-] [Example 22, 2-{[(3-amino-6-bromopyrazin-2-yl)formamido]methyl}-6-[1-(1-carbamimidoylpiperidin-4-yl)-1H-pyrazol-4-yl]-1,3-diethyl-1H-1,3-benzodiazol-3-ium formic acid formate]"
8,8,"CCn1c(CNC(=O)c2nc(Br)cnc2N)[n+](CCOCCOCCO)c2ccc(OC)cc21.O=C[O-] [Example 4, 2-{[(3-amino-6-bromopyrazin-2-yl)formamido]methyl}-1-ethyl-3-{2-[2-(2-hydroxyethoxy)ethoxy]ethyl}-6-methoxy-1H-1,3-benzodiazol-3-ium formate]"
9,> 138,"CCn1c(CNC(=O)c2nc(Br)cnc2N)[n+](CC)c2ccc(-c3cnn(C4CCN(C[C@H](O)[C@@H](O)[C@H](O)[C@H](O)CO)CC4)c3)cc21.O=CO.[Cl-] [Example 23, 2-{[(3-amino-6-bromopyrazin-2-yl)formamido]methyl}-1,3-diethyl-6-(1-{1-[(2S,3R,4R,5R)-2,3,4,5,6-pentahydroxyhexyl]piperidin-4-yl}-1H-pyrazol-4-yl)-1H-1,3-benzodiazol-3-ium formic acid chloride]"
10,3,"CCc1cnc(N)c(C(=O)NCc2n(CC)c3cc(OC)ccc3[n+]2C)n1.[I-] [Example 8, 2-{[(3-amino-6-ethylpyrazin-2-yl)formamido]methyl}-1-ethyl-6-methoxy-3-methyl-1H-1,3-benzodiazol-3-ium iodide]"
11,4,"CCn1c(CNC(=O)c2nc(Cl)cnc2N)[n+](C)c2ccc(OC)cc21.[I-] [Example 5, 2-{[(3-amino-6-chloropyrazin-2-yl)formamido]methyl}-1-ethyl-6-methoxy-3-methyl-1H-1,3-benzodiazol-3-ium iodide]"
12,< 3,"CCn1c(CNC(=O)c2nc(C#N)cnc2N)[n+](CC)c2ccc(OC)cc21 [Example 26, 2-{[(3-amino-6-cyanopyrazin-2-yl)formamido]methyl}-1,3-diethyl-6-methoxy-1H-1,3-benzodiazol-3-ium formate]"
13,11,"CCn1c(CNC(=O)c2nc(Br)cnc2N)[n+](CC)c2ccc(C(=O)OC)cc21.[I-] [Example 15, 2-{[(3-amino-6-bromopyrazin-2-yl)formamido]methyl}-1,3-diethyl-6-(methoxycarbonyl)-1H-1,3-benzodiazol-3-ium iodide]"
14,3,"CCn1c(CNC(=O)c2nc(Br)cnc2N)[n+](CC)c2ccc(OC)cc21.O=C[O-] [Example 2, 2-{[(3-amino-6-bromopyrazin-2-yl)formamido]methyl}-1,3-diethyl-6-methoxy-1H-1,3-benzodiazol-3-ium formate]"
15,4,"CCn1c(CNC(=O)c2nc(Br)cnc2N)[n+](C)c2ccc(Cl)cc21.O=CO.O=C[O-] [Example 11, 2-{[(3-amino-6-bromopyrazin-2-yl)formamido]methyl}-6-chloro-1-ethyl-3-methyl-1H-1,3-benzodiazol-3-ium formic acid formate]"
16,7,"CCn1c(CNC(=O)c2nc(C)cnc2N)[n+](C)c2ccc(OC)cc21.[I-] [Example 7, 2-{[(3-amino-6-methylpyrazin-2-yl)formamido]methyl}-1-ethyl-6-methoxy-3-methyl-1H-1,3-benzodiazol-3-ium iodide]"
17,11,"CCn1c(CNC(=O)c2nc(Br)cnc2N)[n+](C)c2ccc(OC(F)(F)F)cc21.O=C[O-] [Example 14, 2-{[(3-amino-6-bromopyrazin-2-yl)formamido]methyl}-1-ethyl-3-methyl-6-(trifluoromethoxy)-1H-1,3-benzodiazol-3-ium formate]"
18,4,"CCn1c(CNC(=O)c2nc(Br)cnc2N)[n+](C)c2ccc(F)cc21.O=C[O-] [Example 12, 2-{[(3-amino-6-bromopyrazin-2-yl)formamido]methyl}-1-ethyl-6-fluoro-3-methyl-1H-1,3-benzodiazol-3-ium formate]"
19,4,"CCn1c(CNC(=O)c2nc(Br)cnc2N)[n+](CCO)c2ccc(OC)cc21.O=C[O-] [Example 3, 2-{[(3-amino-6-bromopyrazin-2-yl)formamido]methyl}-1-ethyl-3-(2-hydroxyethyl)-6-methoxy-1H-1,3-benzodiazol-3-ium formate]"

row,Compound,half-life at 1 μM [min]
1,"CCn1c(CNC(=O)c2nc(Br)cnc2N)[n+](CC)c2ccc(-c3cnn(C4CCN(C(=O)OC(C)(C)C)CC4)c3)cc21.[I-] [Example 20, 2-{[(3-amino-6-bromopyrazin-2-yl)formamido]methyl}-6-(1-{1-[(tert-butoxy)carbonyl]piperidin-4-yl}-1H-pyrazol-4-yl)-1,3-diethyl-1H-1,3-benzodiazol-3-ium iodide]",61
2,"CCn1c(CNC(=O)c2nc(Br)cnc2N)[n+](CC)c2ccc(OCCNC(=O)OC(C)(C)C)cc21.O=C[O-] [Example 24, 2-{[(3-amino-6-bromopyrazin-2-yl)formamido]methyl}-6-(2-{[(tert-butoxy)carbonyl]amino}ethoxy)-1,3-diethyl-1H-1,3-benzodiazol-3-ium formate]",37
